Measurements: patent US20260015325A1, “ALKOXY HETEROARYL- CARBOXAMIDE OR THIOAMIDE COMPOUNDS” (SYNGENTA CROP PROTECTION AG, priority 2022, published 2026)

What was measured:
Assay type in all cases: in vivo
[1] = test system: Myzus persicae (Green Peach Aphid); test: Myzus persicae (Green Peach Aphid): intrinsic activity, sucrose solution; conditions: 120 h, test rate of 12 ppm, intrinsic, mixed with sucrose solution under Parafilm, 5 days after infestation, read-out: mortality
From the text: Example B8: Myzus persicae (Green Peach Aphid). Intrinsic Activity
Test compounds prepared from 10′000 ppm DMSO stock solutions were applied by pipette into 24-well microtiter plates and mixed with sucrose solution. The plates were closed with a stretched Parafilm. A plastic stencil with 24 holes was placed onto the plate and infested pea seedlings were placed directly on the Parafilm. The infested plate was closed with a gel blotting paper and another plastic stencil and then turned upside down. The samples were assessed for mortality 5 days after infestation.

[2] = test system: Myzus persicae (Green Peach Aphid); test: Myzus persicae (Green Peach Aphid): feeding/contact activity, sunflower leaf discs; conditions: foliar, 144 h, application rate of 200 ppm, mixed ages on sprayed sunflower leaf discs, 6 days after infestation, read-out: mortality
Procedure: Example B6: Myzus persicae (Green Peach Aphid): Feeding/Contact Activity
Sunflower leaf discs were placed onto agar in a 24-well microtiter plate and sprayed with aqueous test solutions prepared from 10′000 ppm DMSO stock solutions. After drying, the leaf discs were infested with an aphid population of mixed ages. The samples were assessed for mortality 6 days after infestation.

[3] = test system: Tetranychus urticae (Two-Spotted Spider Mite); test: whole plant or invertebrate; conditions: foliar, 192 h, application rate of 200 ppm, mixed population (mobile stages) on sprayed bean leaf discs, 8 days after infestation, read-out: mortality
Procedure: Example B11: Tetranychus urticae (Two-Spotted Spider Mite): Feeding/Contact Activity
Bean leaf discs on agar in 24-well microtiter plates were sprayed with aqueous test solutions prepared from 10′000 ppm DMSO stock solutions. After drying the leaf discs were infested with a mite population of mixed ages. The samples were assessed for mortality on mixed population (mobile stages) 8 days after infestation.

SMILES | mortality at 12 ppm [1] | mortality at 200 ppm [2] | mortality at 200 ppm [3]
C[C@@H](COc1cnc(Cl)c(C(=O)Nc2ncc(Cl)cc2F)c1)NS(=O)(=O)C(F)(F)F [Compound P-19, 2-chloro-N-(5-chloro-3-fluoro-2-pyridyl)-5-[(2S)-2-(trifluoromethylsulfonylamino)propoxy]pyridine-3-carboxamide] | ≥ 80% | – | –
COCCC#CC(C)(C)NC(=O)c1cc(OC[C@H](C)NS(=O)(=O)C(F)(F)F)ncc1C [Compound P-72, N-(5-methoxy-1,1-dimethyl-pent-2-ynyl)-5-methyl-2-[(2S)-2-(trifluoromethylsulfonylamino)propoxy]pyridine-4-carboxamide] | – | ≥ 80% | –
Cc1ncc(OC[C@H](C)NS(=O)(=O)C(F)(F)F)cc1C(=O)NC1CC(F)(F)C1 [Compound P-37, N-(3,3-difluorocyclobutyl)-2-methyl-5-[(2S)-2-(trifluoromethylsulfonylamino)propoxy]pyridine-3-carboxamide] | – | – | ≥ 80%
Cc1ncc(OC[C@H](C)NS(=O)(=O)C(F)(F)F)cc1C(=O)NCC(F)F [Compound P-39, N-(2,2-difluoroethyl)-2-methyl-5-[(2S)-2-(trifluoromethylsulfonylamino)propoxy]pyridine-3-carboxamide] | – | – | ≥ 80%
C[C@@H](COc1cnc(Cl)c(C(=O)N(C)CC(F)F)c1)NS(=O)(=O)C(F)(F)F [Compound P-59, 2-chloro-N-(2,2-difluoroethyl)-N-methyl-5-[(2S)-2-(trifluoromethylsulfonylamino)propoxy]pyridine-3-carboxamide] | – | ≥ 80% | –
CCN1OC[C@H](NC(=O)c2cc(OC[C@H](C)NS(=O)(=O)C(F)(F)F)cnc2Cl)C1=O [Compound P-49, 2-chloro-N-[(4S)-2-ethyl-3-oxo-isoxazolidin-4-yl]-5-[(2S)-2-(trifluoromethylsulfonylamino)propoxy]pyridine-3-carboxamide] | – | ≥ 80% | ≥ 80%
C[C@@H](COc1cnc(Cl)c(C(=O)NC(C)(C)C)c1)NS(=O)(=O)C(F)(F)F [Compound P-11, N-tert-butyl-2-chloro-5-[(2S)-2-(trifluoromethylsulfonylamino)propoxy]pyridine-3-carboxamide] | ≥ 80% | ≥ 80% | ≥ 80%
Cc1cnc(OC[C@H](C)NS(=O)(=O)C(F)(F)F)cc1C(=O)NCC(F)(F)F [Compound P-80, 5-methyl-N-(2,2,2-trifluoroethyl)-2-[(2S)-2-(trifluoromethylsulfonylamino)propoxy]pyridine-4-carboxamide] | – | – | ≥ 80%
C[C@@H](COc1cnc(Cl)c(C(=O)NC2(C)CCOC2)c1)NS(=O)(=O)C(F)(F)F (stereo partly drawn) [Compound P-51, 2-chloro-N-(3-methyltetrahydrofuran-3-yl)-5-[(2S)-2-(trifluoromethylsulfonylamino)propoxy]pyridine-3-carboxamide] | – | – | ≥ 80%
C[C@@H](COc1cnc(Cl)c(C(=O)NCC(=O)NCC2CC2)c1)NS(=O)(=O)C(F)(F)F [Compound P-53, 2-chloro-N-[2-(cyclopropylmethylamino)-2-oxo-ethyl]-5-[(2S)-2-(trifluoromethylsulfonylamino)propoxy]pyridine-3-carboxamide] | – | ≥ 80% | –
C[C@@H](COc1cnc(Cl)c(C(=O)NCc2ccccc2)c1)NS(=O)(=O)C(F)(F)F [Compound P-44, N-benzyl-2-chloro-5-[(2S)-2-(trifluoromethylsulfonylamino)propoxy]pyridine-3-carboxamide] | – | – | ≥ 80%
CCNC(=O)c1cc(OC[C@H](C)NS(=O)(=O)C(F)(F)F)cnc1C [Compound P-36, N-ethyl-2-methyl-5-[(2S)-2-(trifluoromethylsulfonylamino)propoxy]pyridine-3-carboxamide] | – | ≥ 80% | –
Cc1cnc(OC[C@H](C)NS(=O)(=O)C(F)(F)F)cc1C(=O)N(C)C1(C#N)CC1 [Compound P-67, N-(1-cyanocyclopropyl)-N,5-dimethyl-2-[(2S)-2-(trifluoromethylsulfonylamino)propoxy]pyridine-4-carboxamide] | – | ≥ 80% | –
Cc1cnc(OC[C@H](C)NS(=O)(=O)C(F)(F)F)cc1C(=O)NCc1ccc2c(c1)COC2 [Compound P-69, N-(1,3-dihydroisobenzofuran-5-ylmethyl)-5-methyl-2-[(2S)-2-(trifluoromethylsulfonylamino)propoxy]pyridine-4-carboxamide] | – | ≥ 80% | –
Cc1ncc(OC[C@H](C)NS(=O)(=O)C(F)(F)F)cc1C(=O)N(C)C1CC1 [Compound P-40, N-cyclopropyl-N,2-dimethyl-5-[(2S)-2-(trifluoromethylsulfonylamino)propoxy]pyridine-3-carboxamide] | – | ≥ 80% | –
Cc1ncc(OC[C@H](C)NS(=O)(=O)C(F)(F)F)cc1C(=O)NCc1ncccc1Cl [Compound P-32, N-[(3-chloro-2-pyridyl)methyl]-2-methyl-5-[(2S)-2-(trifluoromethylsulfonylamino)propoxy]pyridine-3-carboxamide] | – | ≥ 80% | ≥ 80%
C[C@@H](COc1cnc(Cl)c(C(=O)Nc2ccc(S(C)(=O)=O)cc2F)c1)NS(=O)(=O)C(F)(F)F [Compound P-24, 2-chloro-N-(2-fluoro-4-methylsulfonyl-phenyl)-5-[(2S)-2-(trifluoromethylsulfonylamino)propoxy]pyridine-3-carboxamide] | – | – | ≥ 80%
C[C@@H](COc1cnc(Cl)c(C(=O)NCC(F)F)c1)NS(=O)(=O)C(F)(F)F [Compound P-55, 2-chloro-N-(2,2-difluoroethyl)-5-[(2S)-2-(trifluoromethylsulfonylamino)propoxy]pyridine-3-carboxamide] | ≥ 80% | ≥ 80% | –
Cc1cnc(OC[C@H](C)NS(=O)(=O)C(F)(F)F)cc1C(=O)NCc1ccccc1 [Compound P-77, N-benzyl-5-methyl-2-[(2S)-2-(trifluoromethylsulfonylamino)propoxy]pyridine-4-carboxamide] | – | – | ≥ 80%
CCN1OC[C@@H](NC(=O)c2cc(OC[C@H](C)N(COC)S(=O)(=O)C(F)(F)F)ncc2C)C1=O [Compound P-78, N-[(4R)-2-ethyl-3-oxo-isoxazolidin-4-yl]-2-[(2S)-2-[methoxymethyl(trifluoromethylsulfonyl)amino]propoxy]-5-methyl-pyridine-4-carboxamide] | – | ≥ 80% | ≥ 80%
C[C@@H](COc1cnc(Cl)c(C(=O)Nc2ncc(C#N)cc2F)c1)NS(=O)(=O)C(F)(F)F [Compound P-18, 2-chloro-N-(5-cyano-3-fluoro-2-pyridyl)-5-[(2S)-2-(trifluoromethylsulfonylamino)propoxy]pyridine-3-carboxamide] | – | – | ≥ 80%
CCc1ncsc1NC(=O)c1cc(OC[C@H](C)NS(=O)(=O)C(F)(F)F)ncc1C [Compound P-68, N-(4-ethylthiazol-5-yl)-5-methyl-2-[(2S)-2-(trifluoromethylsulfonylamino)propoxy]pyridine-4-carboxamide] | – | ≥ 80% | –
Cc1cnc(OC[C@H](C)NS(=O)(=O)C(F)(F)F)cc1C(=O)NC(C)C1CC1 (stereo partly drawn) [Compound P-73, N-(1-cyclopropylethyl)-5-methyl-2-[(2S)-2-(trifluoromethylsulfonylamino)propoxy]pyridine-4-carboxamide] | – | ≥ 80% | –
Cc1cnc(OC[C@H](C)NS(=O)(=O)C(F)(F)F)cc1C(=O)Nc1cccc(C#N)c1F [Compound P-75, N-(3-cyano-2-fluoro-phenyl)-5-methyl-2-[(2S)-2-(trifluoromethylsulfonylamino)propoxy]pyridine-4-carboxamide] | – | ≥ 80% | –
Cc1cnc(OC[C@H](C)NS(=O)(=O)C(F)(F)F)cc1C(=O)NC(C)c1cccnc1 (stereo partly drawn) [Compound P-76, 5-methyl-N-[1-(3-pyridyl)ethyl]-2-[(2S)-2-(trifluoromethylsulfonylamino)propoxy]pyridine-4-carboxamide] | – | ≥ 80% | –
Cc1ncc(OC[C@H](C)NS(=O)(=O)C(F)(F)F)cc1C(=O)Nc1ccc(F)cc1F [Compound P-33, N-(2,4-difluorophenyl)-2-methyl-5-[(2S)-2-(trifluoromethylsulfonylamino)propoxy]pyridine-3-carboxamide] | – | – | ≥ 80%
COCN([C@@H](C)COc1cc(C(=O)NC2CC2)c(Br)cn1)S(=O)(=O)C(F)(F)F [Compound P-81, 5-bromo-N-cyclopropyl-2-[(2S)-2-[methoxymethyl(trifluoromethylsulfonyl)amino]propoxy]pyridine-4-carboxamide] | ≥ 80% | – | –
COCN([C@@H](C)COc1cc(C(=O)NC2(C#N)CC2)c(C)cn1)S(=O)(=O)C(F)(F)F [Compound P-79, N-(1-cyanocyclopropyl)-2-[(2S)-2-[methoxymethyl(trifluoromethylsulfonyl)amino]propoxy]-5-methyl-pyridine-4-carboxamide] | – | – | ≥ 80%
Cc1ncc(OC[C@H](C)NS(=O)(=O)C(F)(F)F)cc1C(=O)NC(C)C [Compound P-34, N-isopropyl-2-methyl-5-[(2S)-2-(trifluoromethylsulfonylamino)propoxy]pyridine-3-carboxamide] | – | ≥ 80% | –
